Results reported in patent publication US20120238487A1, “POLYMER COMPOSITION USEFUL AS A PHARMACEUTICAL CARRIER” (ROBERT GORDON UNIVERSITY, priority 2009, published 2012).
≈ marks a conversion by molar mass, not a printed value. Like-named read-outs stand apart in the source and are kept apart here. Each block holds one molecule with its values, some of them ahead of it.

Experiments:
[1] = type: physicochemical
Protocol: Polymer solutions of 1 […] 6 mgmL^-1 were made up in deionised water and probe sonicated for 10 mins to ensure homogeneity. […] The drug loading capacity of the self assemblies was determined using high performance liquid chromatography (HPLC). […] The samples were diluted with mobile phase and 20 μl was injected onto the column, the resultant peak at 7 mins was analysed.

[2] = type: physicochemical; remark: listed apart in the source
Protocol: Polymer solutions of 1 […] 6 mgmL^-1 were made up in deionised water and probe sonicated for 10 mins to ensure homogeneity. […] A reverse phase Phenomenex C18 250 mm×46 mm×5 μm HPLC column was used with flow rate of 1 mlmin^-1 of the mobile phase (45:55 acetonitrile:45 mM potassium dihydrogen phosphate made up in water and pH adjusted to pH3 with orthophosphoric acid) in an isocratic mode.

[3] = type: physicochemical; remark: listed apart in the source
Protocol: (§1) Polymer solutions of 1 mgmL^−1, 3 mgmL^−1 and 6 mgmL^−1 were made up in deionised water and probe sonicated for 10 mins to ensure homogeneity. The hydrophobic drug was added in 1:1, 5:1 and 10:1 drug:excipient ratios and the drug-polymer solutions were probe sonicated for a further 10 mins to ensure maximum encapsulation was achieved. After cooling to room temperature, the solutions were filtered using 0.45 μm GDX PVDF syringe filters to ensure any excess unencapsulated propofol was removed.
A reverse phase Zorbax ODS 250 mm×46 mm×5 […] HPLC column was used with flow rate of 1 mlmin^−1 of the mobile phase (40:3:57 methanol:acetonitrile:water) in an isocratic mode. […] The samples were diluted with mobile phase and 20 μl was injected onto the column, the resultant peak at 20 mins was analysed. The drug content was determined by comparing to a calibration carried out on etoposide dissolved in methanol (31.3-500 μgmL^−1).

[4] = system: HEK 293 cells; assay: MTT assay on HEK 293 cells; type: cell-based, Human; settings: for IC50: Homo sapiens
Protocol: The safety profile of various drugs and nano-aggregates of the drugs and polymers were investigated using the standard colorimetric MTT (3-(4,5-Dimethylthiazol-2-yl)-2,5-diphenyltetrazolium bromide) assay.
An MTT assay was carried out using Caco-2 and HEK cells. Caco-2 cells were cultured as previously described. HEK cells were cultured in Dulbecco's minimum essential medium (DMEM) containing 10% FBS and 1% penicillin streptomycin (Penstrep).
Polymeric self-assemblies were formed by probe sonicating the polymers in sterile water (5 mgmL^−1). The polymer stock solutions were diluted to 0.005 mgmL^−1 with media. Etoposide stock solution (20 mgmL^−1) was prepared by diluting the drug in DMSO. The formulations were prepared by addition of drug into 0.005 mgmL^−1 polymer solution.

[5] = Aqueous solubility of model hydrophobic drugs; type: physicochemical
[6] = system: Caco-2 cells; assay: MTT assay on Caco-2 cells; type: cell-based
Protocol: The cytotoxicity of the modified PAA polymers was determined using the MTT assay model. Caco-2 cells were cultured in minimum essential medium (MEM) containing 10% foetal bovine serum (FBS), 1% L-glutamine and 1% non essential amino acids (NEAA).
A 10 mgmL^−1 polymer solution was prepared using sterile water as the diluent. The solution was further diluted with media to form a 0.5 mgmL^−1 stock solution. From the stock solution nine dilutions (0.2-1×10^−4 mgmL^−1) were made using media as the diluent.
Caco-2 cells (200 μL, 10000 cells/well) in exponential growth phases were seeded into a 96-well flat bottomed plate and incubated for 24 h at 37° C. with 5% CO2. The media was replaced with increasing polymer concentrations (0.5-1×10^−4 mgmL^−1) as prepared above. Media and Triton X (1:5 PBS) were the negative and positive controls respectively. The plate was incubated as before. After 24 h the polymer solutions were removed and replaced with fresh media. […] The remaining purple formazan complexes were dissolved in DMSO (200 μL) and L-glycine buffer (25 mL, made up of 3.75 g glycine and 2.93 g NaCl made up in 500 mL and pH adjusted to pH 10.5) and the absorbance of the plates was read at 570 nm using a microplate reader (Ascend Lab-Systems, UK). Percentage cell viability was calculated relative to the positive and negative controls. […]

[7] = cited from earlier work
[8] = Drug loading capacity: solubilisation of prednisolone (HPLC); type: physicochemical
[9] = type: physicochemical; remark: listed apart in the source
Protocol: as §1
The BNIPDaoct content in self assemblies was carried out using reverse phase Zorbax ODS 250 mm×46 mm×5 […] HPLC column was used with flow rate of 1 mlmin^−1 of the mobile phase (55:45 buffer:acteonitrile) in an isocratic mode. The buffer was made up of 0.4 g octane sulfonic acid and anhydrous sodium acetate made up to 200 ml with deionised water, the solution was pH adjusted to pH4.5. The column eluent was monitored using a fluorescent Detector. The samples were diluted with mobile phase and 20 μl was injected onto the column, the resultant peak at 10 mins was analysed. A calibration was carried out by dissolving BNIPDaoct in DMSO:water (50:50 v/v) (39-625 μgmL^−1).

- maximum concentration of propofol solubilised [1]: 22.4 mgmL^−1
Molecule: 5-Dimethylamino-1-naphthalenesulfonyl-PAA [Dansyl5]

- Increase from aqueous solubility [2]: 557 Fold
- Concentration of Etoposide solubilised [3]: 1.890 (0.011) mgmL^−1
Molecule: 5-Dimethylamino-1-naphthalenesulfonyl-PAA [Dansyl10]

- aqueous solubility (in words) [5]: negligible
Molecule: O=C1c2cccc3cccc(c23)C(=O)N1CCCNCCCCCCCCNCCCN1C(=O)c2cccc3cccc(c23)C1=O [BNIPDaoct, Bisnahthalimidopropyldiaminooctane]
- IC50 (n = 3 ± SD) ([4]; HEK 293 cells, IC50 of the polymer was used in the formulations): 0.00496 (0.00005) mgmL^−1

- maximum concentration of prednisolone solubilised [8]: 7.05 mgmL^−1
- Concentration of Griseofulvin solubilised [2]: 1.2 mgmL^−1
- Excipient:Drug Ratio after solubilisation [2]: 5.00
- Increase from aqueous solubility [2]: 40 Fold
- Concentration of Etoposide solubilised [3]: 1.020 (0.040) mgmL^−1
- Excipient:Drug Ratio after solubilisation [3]: 5.88
- Increase from aqueous solubility [3]: 7 Fold
- Concentration of BNIPDaoct solubilised [9]: 0.3 mgmL^−1
- Excipient:Drug Ratio after solubilisation [9]: 3.33
Molecule: Cholesterol-PAA [Ch5]
- Number of fold more cytotoxic compared to IC50 of PAA [6]: −1.61

Further lines, the molecule ahead of its results:

Molecule: COc1cc([C@@H]2c3cc4c(cc3[C@@H](O[C@@H]3O[C@@H]5CO[C@@H](C)O[C@H]5[C@H](O)[C@H]3O)[C@H]3COC(=O)[C@H]23)OCO4)cc(OC)c1O [Etoposide]
- IC50 ([4]; HEK293, read-out: IC50 (n = 3 ± SD), HEK 293 cells, IC50 of the polymer was used in the formulations): 2.48 µg/mL (≈ 4.21 µM)
- IC50 ([4]; HEK293, IC90 of the polymer used in the formulations (5 μgmL^−1), read-out: IC50 on HEK 293 cells): 2.5 µg/mL (≈ 4.25 µM)
- IC50 ([6]; Homo sapiens, Caco-2, read-out: IC50 on Caco-2 cells): 190 µg/mL (≈ 323 µM)
- aqueous solubility ([7]; 37° C.): 148 to 153 µg/mL
- aqueous solubility ([7]; value used for fold increase): 0.15 mgmL^−1

Molecule: COC1=CC(=O)C[C@@H](C)[C@]12Oc1c(Cl)c(OC)cc(OC)c1C2=O [Griseofulvin, (2S)-trans-7-chloro-2′,4,6-trimethoxy 6′-methylspiro(benzofuran-2[3H],1′-[2]cyclohexene)3,4′-dione]
- aqueous solubility ([7]; 25° C.): 30 µg/mL (≈ 85 µM)
- aqueous solubility ([7]; value used for fold increase): 0.03 mgmL^−1

Molecule: CC(C)c1cccc(C(C)C)c1O [Propofol, 2,6-diisopropylphenol]
- aqueous solubility ([7]; 25° C.): 100 µg/mL (≈ 561 µM)
- aqueous solubility ([7]; value used for fold increase): 0.1 mgmL^−1
